{"source": "patent US20200368198A1", "about": "“METHODS FOR INCREASING FERTILITY” (NEWSOUTH INNOVATIONS PTY LIMITED, priority 2017, published 2020)", "test_system": "C57BL6 female mice", "experiment": "Cumulus oocyte complex yield after PMSG, cisplatin with or without NMN", "format": "in vivo", "conditions": "per mouse, single dose cisplatin 5 mg/kg i.p. and/or NMN 2 g/L drinking water, two months later", "method": "To assess oocyte yield, and mice were hormonally stimulated to superovulated by intraperitoneal injection with 7.5 IU/mL of Pregnant Mare's Serum Gonadotropin (PMSG) (Folligon; Intervet, Boxmeer, Holland) to stimulate follicular growth. After 44-46 hours, ovaries were collected in HEPES-buffered minimum essential medium (aMEM; Gibco Life Technologies, Grand Island, N.Y.) supplemented with 50 µM of 3-isobuty-1-methylxanthine (IBMX) (Sigma aldrich, NSW, AU) (M2 medium) to maintain meitotic arrest at germinal vesicle stage. Cumulus oocyte complexes (COCs) were isolated from preovulatory follicles using a 27-gauge needle and collected using flame-pulled borosilicate Pasteur pipettes in M2 medium supplemented with 3 mg/ml bovine serum albumin (BSA; Sigma Aldrich, St. Louis, Mo.) and 100 μM IBMX (Sigma Aldrich). Cumulus oocyte complexes (COCs) were mechanically denuded of cumulus cells by pipetting, and the denuded oocytes were transferred to another dish containing a drop of fresh M2-medium plus IBMX on heat block with 37° C. with lid to protect oocytes from light. […]", "note": "Values joined by “and” are separate entries in the source; they are usually repeats but may differ in a detail not shown here. Equal entries are not always repeated."}
{"smiles": "NC(=O)c1ccc[n+]([C@@H]2O[C@H](COP(=O)([O-])O)[C@@H](O)[C@H]2O)c1", "note": "[NMN, nicotinamide mononucleotide]", "values": [{"measurement": "Numbers of cumulus oocyte complexes released from mice", "result": "completely rescued and 16 and 14 and 17 and 12 and 13 and 11"}]}
